These molecules were tested against T1, human KDR enzyme (Homo sapiens, UniProt P35968) (assay: Phosphorylation of the substrate PLCγ by the enzyme KDR in vitro (flashplate technique)). Settings: Table VII, degrees of activity by IC50 range; read-out: Activity.
T1 construct: The cytoplasmic domain of human KDR enzyme is cloned in the form of a GST fusion; GST; made in house; host or cells: SF21 insect cells (baculovirus, pFastBac)
Assay type: biochemical
Outline: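 GST-fused human KDR cytoplasmic domain (Sf21 baculovirus, ~60% pure; 100 ng/well) phosphorylating 2 μg GST-PLCγ SH2-SH3 fragment in MOPS pH 7.2 with MgCl2/MnCl2, 1 h at 37° C. Started with γ33P-ATP plus cold ATP (2 μM in start solution); flashplate radioactivity. % inhibition vs no-compound control; IC50 from dose-response curves.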

T1 sequence (P35968 786-1356 limits assumed): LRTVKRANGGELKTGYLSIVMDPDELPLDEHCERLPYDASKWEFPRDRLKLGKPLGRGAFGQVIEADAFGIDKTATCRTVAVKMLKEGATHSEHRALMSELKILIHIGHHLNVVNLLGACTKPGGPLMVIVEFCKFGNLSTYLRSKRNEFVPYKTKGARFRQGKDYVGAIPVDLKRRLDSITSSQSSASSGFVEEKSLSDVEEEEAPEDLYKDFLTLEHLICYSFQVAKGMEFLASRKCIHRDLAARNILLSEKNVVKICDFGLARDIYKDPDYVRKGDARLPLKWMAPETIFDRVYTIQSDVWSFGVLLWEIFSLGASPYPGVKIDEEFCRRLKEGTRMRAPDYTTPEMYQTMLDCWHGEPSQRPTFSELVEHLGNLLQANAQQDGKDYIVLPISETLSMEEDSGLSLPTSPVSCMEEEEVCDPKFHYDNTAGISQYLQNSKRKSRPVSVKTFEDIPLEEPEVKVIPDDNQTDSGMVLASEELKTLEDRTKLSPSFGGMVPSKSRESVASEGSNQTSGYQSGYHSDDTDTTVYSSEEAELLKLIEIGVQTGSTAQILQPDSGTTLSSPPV

IC50, > 3 µM:
O=C(Oc1cc(-c2nc3ccccc3[nH]2)[nH]n1)c1ccc(-c2ccccc2)cc1 [Example 225, Biphenyl-4-carboxylic acid 5-(1H-benzoimidazol-2-yl)-1H-pyrazol-3-yl ester]
O=C(Oc1cc(-c2nc3ccccc3[nH]2)[nH]n1)c1cc(C(F)(F)F)cc(C(F)(F)F)c1 [Example 226, 3,5-Bis-trifluoromethyl-benzoic acid 5-(1H-benzoimidazol-2-yl)-1H-pyrazol-3-yl ester]
O=C(Oc1cc(-c2nc3ccccc3[nH]2)[nH]n1)c1ccc(C(F)(F)F)cc1 [Example 227, 4-Trifluoromethyl-benzoic acid 5-(1H-benzoimidazol-2-yl)-1H-pyrazol-3-yl ester]
O=C(Oc1cc(-c2nc3ccccc3[nH]2)[nH]n1)c1cccs1 [Example 228, Thiophene-2-carboxylic acid 5-(1H-benzoimidazol-2-yl)-1H-pyrazol-3-yl ester]
